Measurements taken from US20250092065A1, “2-(INDAZOL-5-YL)-6-(PIPERIDIN-4-YL)-1,7-NAPHTHYRIDINE DERIVATIVES AND RELATED COMPOUNDS AS MODULATORS FOR SPLICING NUCLEIC ACIDS AND FOR THE TREATMENT OF PROLIFERATIVE DISEASES” (REMIX THERAPEUTICS INC., priority 2022, published 2025).
Where a name gives a salt, the structure may show the parent alone.

Key:
HTT = experiment: HiBiT protein abundance assay, HTT (K562 HiBiT knock-in); assay type: cell-based, human; details: HiBiT knock-in K562 cells, 24 hours, top dose 10 μM
Procedure, shortened: (§1)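 K562 HiBiT knock-in, 24 h, 37 °C, top 10 μM final, 3-fold ×10, DMSO ≤0.25%. Lytic HiBiT luminescence; PC = parental K562, NC = DMSO; 4PL IC50.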

Target C = experiment: HiBiT protein abundance assay, Target C (K562 HiBiT knock-in); assay type: cell-based, human; details: HiBiT knock-in K562 cells, 24 hours, top dose 10 μM
Procedure, shortened: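 K562 HiBiT knock-in cells (10000/well) were treated 24 h at 37° C with a 10-point 3-fold dilution series (top 10 μM final, ≤0.25% DMSO). HiBiT luminescence was read after lytic LgBiT detection. Percent response used unmodified K562 and DMSO-treated knock-in controls, and IC50 came from a four-parameter fit at 50% of untreated.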

SMN2 mRNA = experiment: RT-qPCR splicing assay, SMN2 mRNA; assay type: cell-based, human; details: Homo sapiens, canonical junction qPCR panel, Table 4; read-out: SMN2 IC50 (decrease in CJ mRNA levels)
Procedure, shortened: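 A673 or K562 cells treated 24 h at 37 °C with 11-point 3-fold dilutions (top final 10 uM, DMSO ≤0.25%). Lysates analysed by one-step RT-qPCR for canonical (CJ) and alternative-exon (AJ) junctions, normalized to GAPDH, GUSB or PPIA. ΔΔCt vs DMSO, RQ = 2^(−ΔΔCt), expressed as percentage response.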

MYB = experiment: HiBiT protein abundance assay, MYB (K562 HiBiT knock-in); assay type: cell-based, human; details: HiBiT knock-in K562 cells, 24 hours, top dose 10 μM
Procedure, shortened: as §1

K562 cells = experiment: Cell Titer Glo 2.0 cell viability (toxicity) assay, K562; details: 500 cells/well, 72 hours

| IC50 (HTT) [nM] | IC50 (Target C) [nM] | IC50 (SMN2 mRNA) [nM] | IC50 (MYB) [nM] | SMILES | Effect of Exemplary Compounds on Cell Viability, K562 (K562 cells) |
| --- | --- | --- | --- | --- | --- |
| < 100 | 100 to 1000 | < 100 | < 100 | CCNC(=O)c1nc(-c2cc3cn(C)nc3c(C)c2O)nc2ccc(N3C[C@@H](C)N[C@@H](C)C3)cc12 [Compound 535, 6-[(3R,5S)-3,5-dimethylpiperazin-1-yl]-N-ethyl-2-(6-hydroxy-2,7-dimethylindazol-5-yl)quinazoline-4-carboxamide] | A (A represents <100 nM) |
| < 100 | < 100 | < 100 | < 100 | CNC(=O)c1nc(-c2cc3cn(C)nc3c(C)c2O)nc2ccc(N3CC[C@@H](NC)C3)cc12 [Compound 536, 2-(6-hydroxy-2,7-dimethylindazol-5-yl)-N-methyl-6-[(3R)-3-(methylamino)pyrrolidin-1-yl]quinazoline-4-carboxamide] | A (A represents <100 nM) |
| < 100 | < 100 | < 100 | < 100 | CNC(=O)c1nc(-c2cc3cn(C)nc3c(C)c2O)nc2ccc(N3CC[C@H](NC)C3)cc12 [Compound 537, 2-(6-hydroxy-2,7-dimethylindazol-5-yl)-N-methyl-6-[(3S)-3-(methylamino)pyrrolidin-1-yl]quinazoline-4-carboxamide] | A (A represents <100 nM) |
| 1000 to 10000 | 1000 to 10000 | 100 to 1000 | 1000 to 10000 | Cc1c(O)c(-c2nc(-c3c[nH]nn3)c3cc(N4CCNCC4)ccc3n2)cc2cn(C)nc12 [Compound 538, 2,7-dimethyl-5-[6-(piperazin-1-yl)-4-(1H-1,2,3-triazol-4-yl)quinazolin-2-yl]indazol-6-ol hydrochloride] | C (C represents 1000-9999 nM) |
| < 100 | < 100 | < 100 | < 100 | Cc1c(O)c(-c2nc(C(=O)NC(C)C)c3cc(N4C[C@@H](C)N[C@@H](C)C4)ccc3n2)cc2cn(C)nc12 [Compound 539, 6-[(3R,5S)-3,5-dimethylpiperazin-1-yl]-2-(6-hydroxy-2,7-dimethylindazol-5-yl)-N-isopropylquinazoline-4-carboxamide] | A (A represents <100 nM) |
| 100 to 1000 | 100 to 1000 | < 100 | < 100 | Cc1c(O)c(-c2nc(C(=O)NC3CCC3)c3cc(N4C[C@@H](C)N[C@@H](C)C4)ccc3n2)cc2cn(C)nc12 [Compound 540] | A (A represents <100 nM) |
| > 10000 | > 10000 | 1000 to 10000 | > 10000 | Cc1c(O)c(-c2nc(-c3nn[nH]n3)c3cc(N4CCNCC4)ccc3n2)cc2cn(C)nc12 [Compound 541, 2,7-dimethyl-5-[6-(piperazin-1-yl)-4-(2H-1,2,3,4-tetrazol-5-yl)quinazolin-2-yl]indazol-6-ol] | C (C represents 1000-9999 nM) |
| 1000 to 10000 | 100 to 1000 | < 100 | < 100 | C[C@@H]1CN(c2ccc3nc(-c4cc5cn(C)nc5c(F)c4O)nc(C4CC4)c3c2)C[C@H](C)N1 [Compound 542, 5-{4-cyclopropyl-6-[(3R,5S)-3,5-dimethylpiperazin-1-yl]quinazolin-2-yl}-7-fluoro-2-methylindazol-6-ol] | B (B represents 100-1000 nM) |
| < 100 | 100 to 1000 | < 100 | < 100 | CN[C@@H]1CCN(c2ccc3nc(-c4cc5cn(C)nc5c(F)c4O)nc(C4CC4)c3c2)C1 [Compound 543, 5-{4-cyclopropyl-6-[(3R)-3-(methylamino)pyrrolidin-1-yl]quinazolin-2-yl}-7-fluoro-2-methylindazol-6-ol] | A (A represents <100 nM) |
| 100 to 1000 | 100 to 1000 | < 100 | 100 to 1000 | Cc1cn2cc(-c3ccc4cc(N5C[C@@H](C)N[C@@H](C)C5)cc(F)c4n3)cc(F)c2n1 [Compound 544, 6-[(3R,5S)-3,5-dimethylpiperazin-1-yl]-8-fluoro-2-{8-fluoro-2-methylimidazo[1,2-a]pyridin-6-yl}quinoline] | B (B represents 100-1000 nM) |
| < 100 | 100 to 1000 | < 100 | < 100 | CNC(=O)c1nc(-c2cc3cn(C)nc3c(C)c2O)nc2ccc(N3C[C@H](C)N[C@@H](C)C3)cc12 [Compound 652, 6-[(3S,5S)-3,5-dimethylpiperazin-1-yl]-2-(6-hydroxy-2,7-dimethylindazol-5-yl)-N-methylquinazoline-4-carboxamide] | A (A represents <100 nM) |
| 100 to 1000 | 100 to 1000 | < 100 | < 100 | Cc1c(O)c(-c2ncc3cc(N4C[C@H](C)N[C@@H](C)C4)ccc3n2)cc2cn(C)nc12 [Compound 660, 5-{6-[(3S,5S)-3,5-dimethylpiperazin-1-yl]quinazolin-2-yl}-2,7-dimethylindazol-6-ol] | A (A represents <100 nM) |
| 100 to 1000 | 100 to 1000 | < 100 | < 100 | CNC(=O)c1nc(-c2cc3cn(C)nc3c(C)c2O)nc2ccc(N3CCC(N4CCC4)CC3)cc12 [Compound 706] | A (A represents <100 nM) |
| 100 to 1000 | 100 to 1000 | < 100 | < 100 | C[C@@H]1CN(c2ccc3nc(-c4cc5cn(C)nc5c(F)c4O)nc(C#N)c3c2)C[C@H](C)N1 [Compound 707, 6-[(3R,5S)-3,5-dimethylpiperazin-1-yl]-2-(7-fluoro-6-hydroxy-2-methylindazol-5-yl) quinazoline-4-carbonitrile] | A (A represents <100 nM) |
| 100 to 1000 | 1000 to 10000 | < 100 | < 100 | C[C@@H]1CN(c2ccc3nc(-c4cc5cn(C)nc5c(F)c4O)nc(C(N)=O)c3c2)C[C@H](C)N1 [Compound 712, 6-[(3R,5S)-3,5-dimethylpiperazin-1-yl]-2-(7-fluoro-6-hydroxy-2-methylindazol-5-yl) quinazoline-4-carboxamide] | A (A represents <100 nM) |
| 100 to 1000 | 100 to 1000 | < 100 | < 100 | CC(=O)c1nc(-c2cc3cn(C)nc3c(F)c2O)nc2ccc(N3C[C@@H](C)N[C@@H](C)C3)cc12 [Compound 717, 1-{6-[(3R,5S)-3,5-dimethylpiperazin-1-yl]-2-(7-fluoro-6-hydroxy-2-methylindazol-5-yl)quinazolin-4-yl}ethanone] | A (A represents <100 nM) |
| < 100 | 100 to 1000 | < 100 | < 100 | CNC(=O)c1nc(-c2cc3cn(C)nc3c(F)c2O)nc2ccc(N3CCC(N4CCC4)CC3)cc12 [Compound 722, 6-[4-(azetidin-1-yl)piperidin-1-yl]-2-(7-fluoro-6-hydroxy-2-methylindazol-5-yl)-N-methylquinazoline-4-carboxamide] | A (A represents <100 nM) |
| < 100 | < 100 | < 100 | < 100 | Cc1cc(N2C[C@@H](C)N[C@@H](C)C2)cc2c(Cl)cc(-c3cc4cn(C)nc4c(F)c3O)nc12 [Compound 723, 5-{4-chloro-6-[(3R,5S)-3,5-dimethylpiperazin-1-yl]-8-methylquinolin-2-yl}-7-fluoro-2-methylindazol-6-ol] | A (A represents <100 nM) |
| 100 to 1000 | 100 to 1000 | < 100 | < 100 | CNC(=O)c1nc(-c2cc3cn(C)nc3c(F)c2O)nc2ccc(N3CCNC4(CC4)C3)cc12 [Compound 728, 6-{4,7-diazaspiro[2.5]octan-7-yl}-2-(7-fluoro-6-hydroxy-2-methylindazol-5-yl)-N-methylquinazoline-4-carboxamide] | A (A represents <100 nM) |
| < 100 | < 100 | < 100 | < 100 | CNC(=O)c1nc(-c2cc3cn(C)nc3c(F)c2O)nc2ccc(N3CC[C@@H](NC)C3)cc12 [Compound 729, 2-(7-fluoro-6-hydroxy-2-methylindazol-5-yl)-N-methyl-6-[(3R)-3-(methylamino)pyrrolidin-1-yl]quinazoline-4-carboxamide] | A (A represents <100 nM) |
| 1000 to 10000 | 1000 to 10000 | 100 to 1000 | 1000 to 10000 | C[C@@H]1CN(c2ccc3nc(-c4cc5cn(C)nc5c(F)c4O)nc(-c4nccs4)c3c2)C[C@H](C)N1 [Compound 732, 5-{6-[(3R,5S)-3,5-dimethylpiperazin-1-yl]-4-(1,3-thiazol-2-yl)quinazolin-2-yl}-7-fluoro-2-methylindazol-6-ol] | B (B represents 100-1000 nM) |
